Measurements as given in PMC6661952 (BMC Chemistry, 2019).
Several values for one entry are separate records, joined by “and”; a condition that tells them apart may be missing. Identical values can stand only once. Like-named read-outs stand apart in the source and are kept apart here.

Conditions: for Log k (logarithm of the retention factor): C18 column, methanol-water; for φ 0 (isocratic chromatographic hydrophobicity index): φ 0 = − log kw/S, methanol as organic modifier, C18; for Log kw (lipophilicity chromatographic index, intercept of log k = log kw − S φ): extrapolated to pure water as eluent, C18, methanol-water
Method: For chromatographic analysis, stock solutions (200 μg/mL) of each of the investigated samples were prepared in methanol. HPLC measurements were performed utilizing Shimadzu Prominence HPLC system (Shimadzu Corporation, Japan) consisting of LC-20 AD pump, DGU-20 A5 degasser, CBM-20A interface, and SPD-20A UV–Vis detector with a 20 µL injection loop. The column utilized for studying the chromatographic behavior of the analytes was the most frequently used for lipophilicity investigations: Waters symmetry® C18 column [250 mm × 4.6 mm (i.d.), 5-μm particle size]. The flow rate was 1.2 mL/min at room temperature. The retention behaviour of the analytes was investigated as a function of mobile phase composition ranging from 60–80% methanol and 40–20% water. The HPLC analyses were carried out at room temperature under isocratic conditions. Membrane filters (0.45 μm) from Sartorius (Goettingen, Germany) were used for filtration of samples. The absorbance of the analytes during a chromatographic run was performed at 200 nm. Each experiment was run in duplicate. Chromatographic data were collected using LabSolutions CS software. H^1NMR spectra were recorded using Bruker NMR spectrometer (Bruker GmbH, Germany),
It was shown from previous reports that the chromatographic systems using methanol: water as mobile phases were better for log k modeling than those containing acetonitrile as an organic modifier. […] Chromatographic techniques including HPLC are based on the determination of the retention parameters. The indices of lipophilicity measured by HPLC are obtained from the logarithm of the retention factor (log k), which is calculated by the following equation:1 logk=logtr-t0/t0 where; tR is the retention time of the solute and t0 is the retention time of unretained species.
Estimating log kw directly is often very difficult, and is nearly non-feasible, because it can produce elongated retention time and also extreme peak broadening. […] Consequently, to obtain log kw, an extrapolation to 100% of pure water was carried out. Then, linear regression analysis was performed. Linear extrapolation is favored using definite ratios of organic modifier consistent with the lipophilicity level of the solutes.
Another substitute to the index of lipophilicity is the chromatographic index of hydrophobicity φ 0 which was first given by Valkò et al.. It is calculated simply by the equation: φ 0 = − log kw/S. φ0 denotes the volume fraction of the organic modifier in the mobile phase at which equal partitioning of the solute between the mobile and stationary phases is obtained, that is, k = 1, log k = 0 [22]. The value of φ 0 is specific for each compound; it relies solely on the pH, organic modifier and temperature.

[1] = 60% methanol in the mobile phase
[2] = 65% methanol in the mobile phase
[3] = 70% methanol in the mobile phase
[4] = 75% methanol in the mobile phase

| SMILES | Log k (logarithm of the retention factor) [1] | Log k (logarithm of the retention factor) [2] | φ 0 (isocratic chromatographic hydrophobicity index) | Log k (logarithm of the retention factor) [3] | Log k (logarithm of the retention factor) [4] | Log k (logarithm of the retention factor) (80% methanol in the mobile phase) | Log kw (lipophilicity chromatographic index, intercept of log k = log kw − S φ) |
| --- | --- | --- | --- | --- | --- | --- | --- |
| O=C(CS(=O)(=O)c1ccccc1)c1ccccc1 [Compound 11a] | 0.088 | 0.041 | 64.83 |  |  |  |  |
| Cc1ccc(-c2cc(C(F)(F)F)nn2-c2ccc(S(N)(=O)=O)cc2)cc1 [Celecoxib, 4-[5-(4-methylphenyl)-3-(trifluoromethyl)pyrazol-1yl]benzenesulfonamide, reference compound] |  | 0.950 |  | 0.83 | 0.530 | 0.235 |  |
| O=C(CS(=O)(=O)c1ccccc1)c1ccc(Br)cc1 [Compound 11c] | 0.635 | 0.501 | 75.14 | 0.123 |  |  | 3.151 and 3.15 |
| Cc1ccc(C(=O)CS(=O)(=O)c2ccccc2)cc1 [Compound 11b] | 0.317 | 0.493 | 69.81 |  |  |  | 3.597 and 3.60 |
| Cc1ccc(S(=O)(=O)CC(=O)c2ccc(Br)cc2)cc1 [Compound 11d] |  | 0.901 | 77.99 | 0.364 | 0.123 |  | 4.784 and 4.78 |

Further lines, results first:

| Log k (logarithm of the retention factor) [1] | Log k (logarithm of the retention factor) [2] | φ 0 (isocratic chromatographic hydrophobicity index) | Log k (logarithm of the retention factor) [3] | Log k (logarithm of the retention factor) [4] | Log k (logarithm of the retention factor) (80% methanol in the mobile phase) | Log kw (lipophilicity chromatographic index, intercept of log k = log kw − S φ) | SMILES |
| --- | --- | --- | --- | --- | --- | --- | --- |
| 0.950 | 0.824 | 77.97 | 0.740 |  |  | 4.59 | O=S(=O)(C/C(=N/Nc1ccccc1)c1ccccc1)c1ccccc1 [Compound 17a] |
| 0.847 | 0.743 | 74.52 | 0.611 |  |  | 5.182 and 5.18 | Cc1ccc(/C(CS(=O)(=O)c2ccccc2)=N\Nc2ccccc2)cc1 [Compound 17b] |
| 0.130 | 0.053 | 64.39 |  |  |  | 1.941 and 1.94 | O=S(=O)(C/C(=N/O)c1ccccc1)c1ccccc1 [Compound 16a] |
| 0.481 | 0.280 | 72.57 | 0.150 |  |  | 2.715 and 2.72 | Cc1ccc(/C(CS(=O)(=O)c2ccccc2)=N\O)cc1 [Compound 16b] |
